The record followed here is US12677825B2, “Composition for protecting islet transplantation” (LG CHEM, LTD., priority 2020, dated 2026).

Structures are written as SMILES.

Test [1] relates to c-Jun N-terminal kinases, HMGB1, IL-1β, IL-6, TNF-α. The test can be described thus: Real-time qRT-PCR of c-Jun, HMGB1 and proinflammatory cytokines after islet isolation. The format is cell-based, mouse. Particulars: after isolation with 20 μM Compound 1, vs non-treated group; FIG. 1F. The method, then: Mouse islets were isolated from 10- to 12-week-old hIAPP^+/− and C57BL/6 mice as described previously. Briefly, 0.8 mg/mL of collagenase P (Roche, Indianapolis, IN, USA) in Hank's buffered saline solution (HBSS, Sigma-Aldrich, St. Louis, MO, USA) with or without 20 μM Compound 1 were infused into the common bile duct for mouse pancreas digestion. Islets were purified from the digested pancreas using a Ficoll (Biochrom, Berlin, Germany) gradient and washed several times with 1 xHBSS. Isolated islets were cultured while free-floating in 10 mL of RPMI 1640 (Gibco, Grand Island, NY, USA). […]
Harvested islets were treated with 500 μL Trizol (Life Technologies, Grand Island, NY, USA), and then 100 μL of chloroform was added. […] RNA purity was assessed by NanoDrop (Thermo Scientific, Wilmington, DE, USA) and agarose gel electrophoresis. […] Total RNA was reverse transcribed to quantify the expression of genes using the SuperScript™ II reverse transcription system (Life Technologies) according to the manufacturer's protocol.
Real-time qRT-PCR was performed using gene-specific primer pairs (Table 1). […] To quantify the expression level of genes, real-time PCR was performed using a SYBR premix kit (Takara Bio Inc., Tokyo, Japan) and an ABI Prism 7000 (Applied Biosystems, Foster City, CA, USA) according to the manufacturers' protocols.
In general terms: Real-time PCR tracks product formation cycle by cycle.

The subject of test [2] is islets from hIAPP+/− FVB/N mice. Description: Intracellular free radical detection and lipid peroxidation after islet isolation. The format is cell-based, mouse. As to conditions: 20 μM Compound 1 during islet isolation, vs control islets. As to the method:
Mouse islets were isolated from 10- to 12-week-old hIAPP^+/− and C57BL/6 mice as described previously. Briefly, 0.8 mg/mL of collagenase P (Roche, Indianapolis, IN, USA) in Hank's buffered saline solution (HBSS, Sigma-Aldrich, St. Louis, MO, USA) with or without 20 μM Compound 1 were infused into the common bile duct for mouse pancreas digestion. Islets were purified from the digested pancreas using a Ficoll (Biochrom, Berlin, Germany) gradient and washed several times with 1 xHBSS. Isolated islets were cultured while free-floating in 10 mL of RPMI 1640 (Gibco, Grand Island, NY, USA). The medium was supplemented with 10% heat-inactivated FBS (fetal bovine serum) at 37° C. and 5% CO2 incubation prior to the ex vivo and in vivo studies.
The oxidative stress levels in hIAPP^+/− mouse islets were determined right after islet isolation and after ex vivo culture of isolated islets. The oxidative stress of the islets was quantified using a fluorescence-based intracellular ROS detection method and by estimating the concentration of malondialdehyde (MDA), a by-product of lipid peroxidation. The formation of total ROS, superoxide ion and nitric oxide was determined using a reactive oxygen species detection kit (ENZ-51011, Enzo Life Sciences, Farmingdale, New York, USA). The ROS content was measured by levels of DHR123 fluorescence. The kit was applied according to the manufacturer's protocol.

Take `O=S1(=O)CCN(Cc2cc(NC3CCOCC3)c3[nH]c(-c4ccccc4)cc3c2)CC1` [Compound 1]: the “transcriptional expression of c-Jun N-terminal kinases, HMGB1, IL-1β, IL-6 and TNF-α” value in test [1] is “significantly decreased”. Also, the “ROS contents in islets” value in test [2] (FIG. 1C) is “markedly decreased”. The “oxidative stress levels in islets” value in test [2] (FIG. 1D) was “markedly decreased”.
